# Test results published in the supplement of paper PMC10307832.
# Tests used:
# Assay in all cases: relative viability (nuclei count vs DMSO), 5 days (fraction); higher = more cells survive
# [1] = tested on: UMC-11
# In short: (§1)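 Lung cancer cell lines were seeded in 1536-well plates and dosed by pin tool the next day, with either a single drug or a fixed anchor-drug dose combined with five library-drug doses (not always all listed) spaced in √10 steps. Five days later, one step fixed the cells and stained their nuclei (final 0.05% Triton X-100, 1% formaldehyde, 1 ug/ml Hoechst), and nuclei were counted on 4× images. Relative viability is the nuclei count in treated wells divided by the count in vehicle wells, and each value is the median of duplicate plates.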
# [2] = tested on: EPLC-272H
# In short: as §1
# [3] = tested on: EMC-BAC-2
# In short: as §1
# [4] = tested on: CAL-12T
# In short: as §1
# [5] = tested on: COR-L 105
# In short: as §1
# [6] = tested on: NCI-H358
# In short: as §1
# [7] = tested on: HOP-62
# In short: as §1
# [8] = tested on: NCI-H2126
# In short: as §1
# [9] = tested on: NCI-H1755
# In short: as §1
# [10] = tested on: NCI-H322M
# In short: as §1
# [11] = tested on: ABC-1
# In short: as §1
# [12] = tested on: HCC-15
# In short: as §1
# [13] = tested on: NCI-H1915
# In short: as §1
# [14] = tested on: LXF-289
# In short: as §1
# [15] = tested on: NCI-H2023
# In short: as §1
# [16] = tested on: HCC-78
# In short: as §1
# [17] = tested on: NCI-H2085
# In short: as §1
# [18] = tested on: NCI-H3122
# In short: as §1
# [19] = tested on: NCI-H1975
# In short: as §1
# [20] = tested on: NCI-H1666
# In short: as §1
smiles,measurement,setting,value
CCN(CC)CCCCNc1ncc2cc(-c3cc(OC)cc(OC)c3)c(NC(=O)NC(C)(C)C)nc2n1 + CS(=O)(=O)CCNCc1ccc(-c2ccc3ncnc(Nc4ccc(OCc5cccc(F)c5)c(Cl)c4)c3c2)o1 [Lapatinib] (partner 2 µM),relative viability,[1]; first compound 0.01 µM,1.18
same,relative viability,[1]; first compound 0.03162 µM,1.04
same,relative viability,[1]; first compound 0.1 µM,1.1
same,relative viability,[1]; first compound 0.3162 µM,1.11
same,relative viability,[1]; first compound 1 µM,0.94
same,relative viability,[2]; first compound 0.01 µM,1.05
same,relative viability,[2]; first compound 0.1 µM,0.956
same,relative viability,[2]; first compound 0.3162 µM,0.922
same,relative viability,[2]; first compound 1 µM,0.642
same,relative viability,[3]; first compound 0.01 µM,0.946
same,relative viability,[3]; first compound 0.03162 µM,0.941
same,relative viability,[3]; first compound 0.1 µM,0.961
same,relative viability,[3]; first compound 0.3162 µM,0.999
same,relative viability,[3]; first compound 1 µM,0.859
same,relative viability,[4]; first compound 0.03162 µM,0.56
same,relative viability,[4]; first compound 0.1 µM,0.703
same,relative viability,[4]; first compound 0.3162 µM,0.674
same,relative viability,[4]; first compound 1 µM,0.62
same,relative viability,[5]; first compound 0.01 µM,0.386
same,relative viability,[5]; first compound 0.03162 µM,0.361
same,relative viability,[5]; first compound 0.1 µM,0.399
same,relative viability,[5]; first compound 0.3162 µM,0.422
same,relative viability,[5]; first compound 1 µM,0.387
same,relative viability,[6]; first compound 0.01 µM,0.449
same,relative viability,[6]; first compound 0.03162 µM,0.484
same,relative viability,[6]; first compound 0.1 µM,0.457
same,relative viability,[6]; first compound 0.3162 µM,0.498
same,relative viability,[6]; first compound 1 µM,0.406
same,relative viability,[7]; first compound 0.01 µM,1.01
same,relative viability,[7]; first compound 0.03162 µM,1.16
same,relative viability,[7]; first compound 0.1 µM,1.19
same,relative viability,[7]; first compound 0.3162 µM,1.09
same,relative viability,[7]; first compound 1 µM,1.33
same,relative viability,[8]; first compound 0.01 µM,0.786
same,relative viability,[8]; first compound 0.03162 µM,0.72
same,relative viability,[8]; first compound 0.1 µM,0.796
same,relative viability,[8]; first compound 0.3162 µM,0.808
same,relative viability,[8]; first compound 1 µM,0.726
same,relative viability,[9]; first compound 0.01 µM,1.12
same,relative viability,[9]; first compound 0.03162 µM,1.06
same,relative viability,[9]; first compound 0.1 µM,1.04
same,relative viability,[9]; first compound 0.3162 µM,1.16
same,relative viability,[9]; first compound 1 µM,0.793
same,relative viability,[10]; first compound 0.01 µM,0.549
same,relative viability,[10]; first compound 0.03162 µM,0.584
same,relative viability,[10]; first compound 0.1 µM,0.598
same,relative viability,[10]; first compound 0.3162 µM,0.619
same,relative viability,[10]; first compound 1 µM,0.528
same,relative viability,[11]; first compound 0.01 µM,1.33
same,relative viability,[11]; first compound 0.03162 µM,1.11
same,relative viability,[11]; first compound 0.1 µM,1.22
same,relative viability,[11]; first compound 0.3162 µM,1.34
same,relative viability,[11]; first compound 1 µM,1.22
same,relative viability,[12]; first compound 0.01 µM,0.871
same,relative viability,[12]; first compound 0.03162 µM,0.944
same,relative viability,[12]; first compound 0.1 µM,0.83
same,relative viability,[12]; first compound 0.3162 µM,1.07
same,relative viability,[12]; first compound 1 µM,0.779
same,relative viability,[13]; first compound 0.01 µM,1.1
same,relative viability,[13]; first compound 0.03162 µM,1.03
same,relative viability,[13]; first compound 0.1 µM,0.775
same,relative viability,[13]; first compound 0.3162 µM,1.1
same,relative viability,[13]; first compound 1 µM,0.971
same,relative viability,[14]; first compound 0.01 µM,0.893
same,relative viability,[14]; first compound 0.03162 µM,0.944
same,relative viability,[14]; first compound 0.1 µM,0.941
same,relative viability,[14]; first compound 0.3162 µM,0.865
same,relative viability,[14]; first compound 1 µM,0.599
same,relative viability,[15]; first compound 0.01 µM,0.748
same,relative viability,[15]; first compound 0.03162 µM,0.94
same,relative viability,[15]; first compound 0.1 µM,1.17
same,relative viability,[15]; first compound 0.3162 µM,0.919
same,relative viability,[15]; first compound 1 µM,0.798
same,relative viability,[16]; first compound 0.03162 µM,1.09
same,relative viability,[16]; first compound 0.1 µM,1.09
same,relative viability,[16]; first compound 0.3162 µM,0.87
same,relative viability,[16]; first compound 1 µM,0.748
same,relative viability,[17]; first compound 0.01 µM,0.791
same,relative viability,[17]; first compound 0.03162 µM,0.691
same,relative viability,[17]; first compound 0.1 µM,0.828
same,relative viability,[17]; first compound 0.3162 µM,0.85
same,relative viability,[17]; first compound 1 µM,0.68
same,relative viability,[18]; first compound 0.01 µM,0.997
same,relative viability,[18]; first compound 0.03162 µM,1.04
same,relative viability,[18]; first compound 0.1 µM,1.16
same,relative viability,[18]; first compound 0.3162 µM,1.07
same,relative viability,[18]; first compound 1 µM,1
same,relative viability,[19]; first compound 0.01 µM,1.02
same,relative viability,[19]; first compound 0.03162 µM,0.882
same,relative viability,[19]; first compound 0.1 µM,0.952
same,relative viability,[19]; first compound 0.3162 µM,1.12
same,relative viability,[19]; first compound 1 µM,0.693
same,relative viability,[20]; first compound 0.01 µM,0.819
same,relative viability,[20]; first compound 0.03162 µM,0.62
same,relative viability,[20]; first compound 0.1 µM,0.604
same,relative viability,[20]; first compound 0.3162 µM,0.684
same,relative viability,[20]; first compound 1 µM,0.498
